Measured values taken from ChEMBL document CHEMBL5625224, “Identification of [1,2,4]Triazolo[4,3-a]pyrazine PARP1 inhibitors with overcome acquired resistance activities” (Eur J Med Chem, 2023).

Legend:
[1] = target: T1, Poly [ADP-ribose] polymerase 1 (Homo sapiens, UniProt P09874); test: Inhibition of PARP1 (unknown origin) incubated for 1 hr by ELISA analysis
CAPAN-1 [2] = test: Antiproliferative activity against human CAPAN-1 BRCA2-/- cells assessed as inhibition of cell growth incubated for 7 days by CCK-8 assay; assay type: functional, cell-based; conditions: CAPAN-1, 168 h
[3] = tested on: Olaparib-resistant CAPAN-1; test: Antiproliferative activity against human Olaparib-resistant CAPAN-1 cells assessed as inhibition of cell growth incubated for 7 days by CCK-8 assay; assay type: functional, cell-based; conditions: Olaparib-resistant CAPAN-1, 168 h
[4] = Selectivity ratio of IC50 for antiproliferative activity against human Talazoparib-resistant CAPAN-1 cells to IC50 for antiproliferative activity against human CAPAN-1 BRCA2-/- cells; assay type: functional
[5] = Antiproliferative activity against human Talazoparib-resistant CAPAN-1 cells assessed as inhibition of cell growth incubated for 7 days by CCK-8 assay; assay type: functional, cell-based; conditions: CAPAN-1, 168 h
[6] = Selectivity ratio of IC50 for antiproliferative activity against human Simmiparib-resistant CAPAN-1 cells to IC50 for antiproliferative activity against human CAPAN-1 BRCA2-/- cells; assay type: functional
[7] = Selectivity ratio of IC50 for antiproliferative activity against human Olaparib-resistant CAPAN-1 cells to IC50 for antiproliferative activity against human CAPAN-1 BRCA2-/- cells; assay type: functional
[8] = Antiproliferative activity against human Simmiparib-resistant CAPAN-1 cells assessed as inhibition of cell growth incubated for 7 days by CCK-8 assay; assay type: functional, cell-based; conditions: CAPAN-1, 168 h
MDA-MB-436 = test: Antiproliferative activity against human MDA-MB-436 BRCA1-/- cells assessed as inhibition of cell growth incubated for 7 days by CCK-8 assay; assay type: functional, cell-based; conditions: MDA-MB-436, 168 h
[9] = Cytotoxicity against Chinese hamster V-C8 BRCA2-/- cells assessed as reduction in cell viability; assay type: toxicity, cell-based, Cricetulus griseus
[10] = target: T1, Poly [ADP-ribose] polymerase 1; test: Inhibition of PARP1 (unknown origin)
[11] = target: Voltage-gated inwardly rectifying potassium channel KCNH2 (Homo sapiens, UniProt Q12809); test: Inhibition of hERG; assay type: toxicity
Voltage-gated inwardly rectifying potassium channel KCNH2, sequence (Q12809 whole entry): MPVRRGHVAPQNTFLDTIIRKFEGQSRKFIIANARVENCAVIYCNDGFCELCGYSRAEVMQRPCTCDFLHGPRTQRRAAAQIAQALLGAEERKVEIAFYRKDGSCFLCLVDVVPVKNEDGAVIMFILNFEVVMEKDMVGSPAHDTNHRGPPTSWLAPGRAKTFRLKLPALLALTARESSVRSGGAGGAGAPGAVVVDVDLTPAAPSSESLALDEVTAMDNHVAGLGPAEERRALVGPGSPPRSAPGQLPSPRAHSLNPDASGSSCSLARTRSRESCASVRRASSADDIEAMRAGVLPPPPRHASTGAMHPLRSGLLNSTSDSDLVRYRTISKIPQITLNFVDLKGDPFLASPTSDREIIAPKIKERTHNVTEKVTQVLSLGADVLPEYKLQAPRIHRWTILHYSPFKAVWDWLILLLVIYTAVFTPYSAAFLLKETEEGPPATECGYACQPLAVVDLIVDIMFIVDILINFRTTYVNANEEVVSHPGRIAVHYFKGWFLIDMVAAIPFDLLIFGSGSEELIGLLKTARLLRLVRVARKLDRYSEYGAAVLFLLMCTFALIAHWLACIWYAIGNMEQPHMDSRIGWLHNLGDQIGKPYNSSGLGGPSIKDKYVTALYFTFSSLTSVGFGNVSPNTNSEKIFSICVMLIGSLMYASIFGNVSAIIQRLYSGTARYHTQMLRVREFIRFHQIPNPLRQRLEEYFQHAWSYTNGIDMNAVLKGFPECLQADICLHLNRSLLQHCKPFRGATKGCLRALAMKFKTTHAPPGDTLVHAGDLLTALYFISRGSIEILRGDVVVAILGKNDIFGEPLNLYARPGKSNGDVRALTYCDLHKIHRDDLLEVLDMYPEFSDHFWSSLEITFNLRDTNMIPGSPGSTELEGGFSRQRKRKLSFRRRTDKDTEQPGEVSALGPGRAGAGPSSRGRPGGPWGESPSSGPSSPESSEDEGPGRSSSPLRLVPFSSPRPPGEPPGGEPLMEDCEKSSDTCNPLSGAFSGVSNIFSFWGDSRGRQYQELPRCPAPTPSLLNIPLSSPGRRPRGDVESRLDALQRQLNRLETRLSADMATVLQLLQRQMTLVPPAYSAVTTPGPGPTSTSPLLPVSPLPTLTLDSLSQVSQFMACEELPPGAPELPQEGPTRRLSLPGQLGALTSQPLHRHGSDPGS

CAPAN-1 [12] = test: Induction of apoptosis in human CAPAN-1 cells assessed as late apoptotic cells at 1 uM incubated for 48 hrs by Annexin-V/PI staining based flow cytometry analysis (reference value: 4.95%); assay type: functional
[13] = tested on: Olaparib-resistant CAPAN-1; test: Induction of apoptosis in human Olaparib-resistant CAPAN-1 cells assessed as late apoptotic cells at 1 uM incubated for 48 hrs by Annexin-V/PI staining based flow cytometry analysis (reference value: 3.67%); assay type: functional
CAPAN-1 [14] = test: Induction of apoptosis in human CAPAN-1 cells assessed as early apoptotic cells at 1 uM incubated for 48 hrs by Annexin-V/PI staining based flow cytometry analysis (reference value: 10.1%); assay type: functional
[15] = tested on: Olaparib-resistant CAPAN-1; test: Induction of apoptosis in human Olaparib-resistant CAPAN-1 cells assessed as early apoptotic cells at 1 uM incubated for 48 hrs by Annexin-V/PI staining based flow cytometry analysis (reference value: 8.50%); assay type: functional

T1 sequence (P09874 whole entry): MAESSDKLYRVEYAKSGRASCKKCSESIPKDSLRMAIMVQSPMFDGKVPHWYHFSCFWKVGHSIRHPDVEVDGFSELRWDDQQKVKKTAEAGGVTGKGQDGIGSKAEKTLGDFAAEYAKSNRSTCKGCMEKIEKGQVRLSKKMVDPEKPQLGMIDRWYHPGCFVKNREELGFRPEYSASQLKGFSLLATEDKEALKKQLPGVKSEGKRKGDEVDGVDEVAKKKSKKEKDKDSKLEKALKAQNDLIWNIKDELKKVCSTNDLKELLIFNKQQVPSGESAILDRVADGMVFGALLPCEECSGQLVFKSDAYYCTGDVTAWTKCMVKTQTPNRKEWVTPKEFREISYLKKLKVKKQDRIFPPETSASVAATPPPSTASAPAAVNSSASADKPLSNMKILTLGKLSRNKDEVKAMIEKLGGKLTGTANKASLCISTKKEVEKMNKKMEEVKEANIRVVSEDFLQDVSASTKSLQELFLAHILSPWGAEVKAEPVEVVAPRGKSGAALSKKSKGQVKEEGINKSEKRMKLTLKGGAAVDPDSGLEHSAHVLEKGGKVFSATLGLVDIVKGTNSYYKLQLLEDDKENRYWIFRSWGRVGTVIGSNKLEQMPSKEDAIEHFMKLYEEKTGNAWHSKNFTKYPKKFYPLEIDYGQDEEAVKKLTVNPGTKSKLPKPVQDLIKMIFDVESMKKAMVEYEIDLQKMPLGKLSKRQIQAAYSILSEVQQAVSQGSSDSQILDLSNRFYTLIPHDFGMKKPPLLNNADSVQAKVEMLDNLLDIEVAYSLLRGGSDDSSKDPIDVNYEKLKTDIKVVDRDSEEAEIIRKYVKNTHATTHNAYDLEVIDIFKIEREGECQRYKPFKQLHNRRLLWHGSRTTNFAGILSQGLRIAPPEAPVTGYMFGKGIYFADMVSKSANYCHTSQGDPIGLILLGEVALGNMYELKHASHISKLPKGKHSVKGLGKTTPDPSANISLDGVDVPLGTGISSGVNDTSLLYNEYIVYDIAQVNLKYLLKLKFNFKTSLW

Cc1c(Cc2ccc(F)c(C(=O)N3Cc4nnc(-c5ccccn5)n4C(C)C3)c2)n[nH]c(=O)c1C (stereo unspecified)
IC50 [1]: 61.3 nM

CC1CN(C(=O)c2cc(Cc3n[nH]c(=O)c4ccccc34)ccc2F)Cc2nnc(CO)n21 (stereo unspecified)
IC50 [1]: 9.2 nM

CC1CN(C(=O)c2cc(Cc3n[nH]c(=O)c4ccccc34)ccc2F)Cc2nnc(CF)n21 (stereo unspecified)
IC50 [1]: 11.9 nM

CC1CN(C(=O)c2cc(Cc3n[nH]c(=O)c4ccccc34)ccc2F)Cc2nnc(C3COC(C)(C)O3)n21 (stereo unspecified)
IC50 [1]: 25 nM

CC1c2ccccc2CCN1C(=O)c1cc(Cc2n[nH]c(=O)c3ccccc23)ccc1F (stereo unspecified)
IC50 [1]: 42.8 nM

CC1CN(C(=O)c2cc(Cc3n[nH]c(=O)c4ccccc34)ccc2F)Cc2nnc(CO[Si](C)(C)C(C)(C)C)n21 (stereo unspecified)
IC50 (CAPAN-1 [2]): 54.7 nM

CC1(C)Cn2nncc2CN1C(=O)c1cc(Cc2n[nH]c(=O)c3ccccc23)ccc1F
IC50 [1]: > 1000 nM

Cn1ncnc1[C@H]1c2n[nH]c(=O)c3cc(F)cc(c23)N[C@@H]1c1ccc(F)cc1 [TALAZOPARIB]
IC50 [3]: 367 nM
Ratio IC50 [4]: 666
IC50 [5]: 182 nM
Ratio IC50 [6]: 1749
Ratio IC50 [7]: 1344
IC50 [8]: 478 nM

CC1CN(C(=O)c2cc(Cc3n[nH]c(=O)c4ccccc34)ccc2F)Cc2nnc(C(F)F)n21 (stereo unspecified)
IC50 [1]: 4.3 nM
IC50 (CAPAN-1 [2]): 29.5 nM
IC50 (MDA-MB-436): 2.9 nM

O=C1CC2c3c(cccc31)CCN2C(=O)c1cc(Cc2n[nH]c(=O)c3ccccc23)ccc1F (stereo unspecified)
CC50 [9]: 4.53 nM
IC50 [10]: 3.46 nM

CC1CN(C(=O)c2cc(Cc3n[nH]c(=O)c4ccccc34)ccc2F)Cc2nnc(C(F)(F)Cl)n21 (stereo unspecified)
IC50 [1]: 3.4 nM
IC50 (CAPAN-1 [2]): 3.4 nM
IC50 (MDA-MB-436): 0.3 nM

CC(C)c1nnc2n1C(C)CN(C(=O)c1cc(Cc3n[nH]c(=O)c4ccccc34)ccc1F)C2 (stereo unspecified)
IC50 [1]: 4.1 nM

CC1CN(C(=O)c2cc(Cc3ccc(=O)[nH]n3)ccc2F)Cc2nnc(-c3ccccn3)n21 (stereo unspecified)
IC50 [1]: 947 nM

CC1CN(C(=O)c2cc(Cc3n[nH]c(=O)c4ccccc34)ccc2F)Cc2nnc(CCl)n21 (stereo unspecified)
IC50 [1]: < 0.3 nM
IC50 (MDA-MB-436): 2.7 nM

CC1CN(C(=O)c2cc(Cc3n[nH]c(=O)c4ccccc34)ccc2F)Cc2nnc(-c3c[nH]cn3)n21 (stereo unspecified)
IC50 [1]: 13.1 nM

CC1(C)CN(C(=O)c2cc(Cc3n[nH]c(=O)c4ccccc34)ccc2F)Cc2cnnn21
IC50 [1]: > 1000 nM

CC1CN(C(=O)c2cc(Cc3n[nH]c(=O)c4ccccc34)ccc2F)Cc2nnc(-c3cnccn3)n21 (stereo unspecified)
IC50 [1]: 4 nM
IC50 (CAPAN-1 [2]): 7.3 nM
IC50 (MDA-MB-436): < 0.3 nM

CC1c2cc(F)ccc2CCN1C(=O)c1cc(Cc2n[nH]c(=O)c3ccccc23)ccc1F (stereo unspecified)
IC50 [1]: 70.7 nM

CC1CN(C(=O)c2cc(Cc3n[nH]c(=O)c4ccccc34)ccc2F)Cc2nnc(-c3ncc[nH]3)n21 (stereo unspecified)
IC50 [1]: 3.2 nM
IC50 (CAPAN-1 [2]): 13.7 nM
IC50 (MDA-MB-436): 1.9 nM

CC1CN(C(=O)c2cc(Cc3n[nH]c(=O)c4ccccc34)ccc2F)Cc2nnc(C(O)CO)n21 (stereo unspecified)
IC50 [1]: 21 nM

CC1CN(C(=O)c2cc(COc3ccccc3C(N)=O)ccc2F)Cc2nnc(-c3ccccn3)n21 (stereo unspecified)
IC50 [1]: 230 nM

CC1CN(C(=O)c2cc(Cc3n[nH]c(=O)c4ccccc34)ccc2F)Cc2nnc(-c3cnn(C)c3)n21 (stereo unspecified)
IC50 [1]: 2.8 nM
IC50 (CAPAN-1 [2]): 218 nM
IC50 (MDA-MB-436): 21.1 nM

CC1CN(C(=O)c2cc(Cc3n[nH]c(=O)c4ccccc34)ccc2F)Cc2cnnn21 (stereo unspecified)
IC50 [1]: > 1000 nM

CC1CN(C(=O)c2cc(Cc3n[nH]c(=O)c4ccccc34)ccc2F)Cc2nnc(CN(C)C)n21 (stereo unspecified)
IC50 [1]: 17.6 nM
IC50 (CAPAN-1 [2]): 1430 nM

CC1CN(C(=O)c2cc(Cc3n[nH]c(=O)c4ccccc34)ccc2F)Cc2nnc(-c3nccn3C)n21 (stereo unspecified)
IC50 [1]: 7.7 nM

CC1CN(C(=O)c2cc(Cn3c(=O)[nH]c(=O)c4ccccc43)ccc2F)Cc2nnc(-c3ccccn3)n21 (stereo unspecified)
IC50 [1]: 4.6 nM

CC1CN(C(=O)c2cc(Cc3n[nH]c(=O)c4ccccc34)ccc2F)Cc2nnc(-c3ccsc3)n21 (stereo unspecified)
IC50 [1]: 2 nM
IC50 (CAPAN-1 [2]): 7.3 nM

COc1ccc2c(c1)C(C)N(C(=O)c1cc(Cc3n[nH]c(=O)c4ccccc34)ccc1F)CC2 (stereo unspecified)
IC50 [1]: 108 nM

CC1CN(C(=O)c2cc(Cc3n[nH]c(=O)c4ccccc34)ccc2F)Cc2nnc(-c3ccco3)n21 (stereo unspecified)
IC50 [1]: 1.7 nM
IC50 (MDA-MB-436): < 0.3 nM

CC1CN(C(=O)c2cc(Cc3n[nH]c(=O)c4ccccc34)ccc2F)Cc2nncn21 (stereo unspecified)
IC50 [1]: 9.4 nM

CC1CN(C(=O)c2cc(Cc3n[nH]c(=O)c4ccccc34)ccc2F)Cc2nnc(-c3cncs3)n21 (stereo unspecified)
IC50 [1]: 5.8 nM
IC50 (CAPAN-1 [2]): 21.6 nM

O=C1NCC2c3c(cccc31)CCN2C(=O)c1cc(Cc2n[nH]c(=O)c3ccccc23)ccc1F (stereo unspecified)
CC50 [9]: 96 nM

CC1CN(C(=O)c2cc(Cc3n[nH]c(=O)c4ccccc34)ccc2F)Cc2nnc(-c3cccs3)n21 (stereo unspecified)
IC50 [3]: 4660 nM
IC50 [11]: 4.1 µM
Ratio IC50 [4]: 112
IC50 [1]: 0.7 nM
IC50 [5]: 730 nM
Ratio IC50 [6]: 507
Ratio IC50 [7]: 717
IC50 [8]: 3290 nM
IC50 (MDA-MB-436): 1.1 nM

CC1CN(C(=O)c2cc(Cc3n[nH]c(=O)c4ccccc34)ccc2F)Cc2nnc(C(F)(F)C(F)(F)F)n21 (stereo unspecified)
IC50 [3]: 1770 nM
IC50 [11]: 40 µM
Ratio IC50 [4]: 91
IC50 [1]: 4.1 nM
IC50 [5]: 272 nM
Ratio IC50 [6]: 509
IC50 (CAPAN-1 [2]): 2.5 nM
Ratio IC50 [7]: 590
IC50 [8]: 1530 nM
IC50 (MDA-MB-436): 1.9 nM

O=C(c1cc(Cc2n[nH]c(=O)c3ccccc23)ccc1F)N1CCc2ccccc2C1C1CC1 (stereo unspecified)
IC50 [1]: 182 nM

CC1Cn2nncc2CN1C(=O)c1cc(Cc2n[nH]c(=O)c3ccccc23)ccc1F (stereo unspecified)
IC50 [1]: > 1000 nM

CC1CN(C(=O)c2cc(Cc3n[nH]c(=O)c4ccccc34)ccc2F)Cc2nnc(C3CC3)n21 (stereo unspecified)
IC50 [1]: 3.2 nM
IC50 (CAPAN-1 [2]): 60.7 nM
IC50 (MDA-MB-436): 7.5 nM

O=C(c1cc(Cc2n[nH]c(=O)c3ccccc23)ccc1F)N1CCN(C(=O)C2CC2)CC1 [OLAPARIB]
IC50 [3]: 40 nM
Activity (CAPAN-1 [12]): 4.5%
Activity [13]: 4.02%
IC50 [5]: 11500 nM
Activity (CAPAN-1 [14]): 16.2%
IC50 [8]: 27600 nM
Activity [15]: 11.5%
IC50 (MDA-MB-436): 43.2 nM

Cc1cc(Cc2ccc(F)c(C(=O)N3Cc4nnc(-c5ccccn5)n4C(C)C3)c2)n[nH]c1=O (stereo unspecified)
IC50 [1]: > 1000 nM

CC1CN(C(=O)c2cc(Cc3n[nH]c(=O)c4ccccc34)ccc2F)Cc2nnc(C(F)(F)F)n21 (stereo unspecified)
CC50 [9]: 42 nM
IC50 [3]: 20 nM
IC50 [5]: 20 nM
IC50 [8]: 20 nM
IC50 (MDA-MB-436): 1.3 nM

CC1CN(C(=O)c2cc(Cc3n[nH]c(=O)c4ccccc34)ccc2F)Cc2nnc(-c3ccccn3)n21 (stereo unspecified)
IC50 [3]: 292 nM
IC50 [11]: 17.4 µM
Ratio IC50 [4]: 55
IC50 [1]: 2 nM
IC50 [5]: 97 nM
Ratio IC50 [6]: 247
IC50 (CAPAN-1 [2]): 1 nM
Ratio IC50 [7]: 165
IC50 [8]: 437 nM
IC50 (MDA-MB-436): < 0.3 nM
